Results published in patent US9772334B2, “Inflammatory bowel disease markers and therapies for colitis-associated intestinal fibrosis” (THE REGENTS OF THE UNIVERSITY OF CALIFORNIA, priority 2012, dated 2017).

Tests used:
[1] = system: TNFα expression in Raw264.7 macrophages; assay: PAMP induced TNFα expression in Raw264.7 macrophages; assay type: cell-based, mouse; settings: flagellin 50 ng/ml
DSS mediated colitis = settings: intracolonic exogenous peptide; Tai et al. 2007; cited from earlier work
[2] = system: TNFα expression in Raw264.7 macrophages; assay: PAMP induced TNFα expression in Raw264.7 macrophages; assay type: cell-based, mouse
Procedure: To identify the anti-inflammatory mechanism of cathelicidin, human PBMCs and mouse macrophages to were exposed to PAMP signals (LPS and E. coli DNA) in the presence of cathelicidin LL-37 or mCRAMP (1-10 μM).

[3] = system: TNBS mediated chronic colitis; assay: TNBS mediated chronic colitis in mice, intracolonic mCRAMP; assay type: in vivo; settings: for colonic collagen deposition / TNBS induced colonic TNFα protein expression / colonic colla2 mRNA: intracolonic
Procedure: FIG. 1A is an illustration of the experimental plan of TNBS mediated chronic colitis. Wild-type and […] mice were injected with TNBS solution (0.5-1 mg per 20 g mice) in 30% ethanol or 30% ethanol only (vehicle control) under transient isoflurane anesthesia. […] All ethanol treated groups had approximately 20% body weight gain. […] Results are representative of n=6 mice per group.
Collagen was stained in blue. Collagen deposited in mucosal and submucosal layer of TNBS treated wild-type mice was reduced by CRAMP treatment. […] Intracolonic treatment of mCRAMP reduced colonic colla2 mRNA and collagen deposition in both WT (p=0.0364) and Camp^−/− (p=0.04) mice. Results are representative of n=6 mice per group.
Fibroblasts accumulated in the mucosal and submucosal locations as collagen deposition. […] Three different locations (3 separate images) per sample were counted. […] Cell migration was not affected by LL-37 (0-10 μM). Results are representative of 3 independent experiments.

TNBS acute colitis = assay: TNBS treated acute colitis in mice, intracolonic mCRAMP; assay type: in vivo; settings: for colonic 16S expression: intracolonic
From the text: FIG. 20A is an illustration of TNBS experimental plan. […] Experiments included n=6 mice per group.
FIGS. 21B and 21C show colonic Camp mRNA expression of mice. […] There was no significant difference in 16S expression among wild-type and Camp−/− mice. n=6 mice per group.

[4] = system: Akt and ERK phosphorylation in Raw 264.7 macrophages; assay: LPS induced Akt and ERK phosphorylation in Raw 264.7 macrophages; assay type: cell-based, mouse; settings: mCRAMP 10 μM; 30 minutes
From the text: […]. LPS induced TNFα expression is Akt dependent. […] All experiments are representative of 3 independent experiments.

## mCRAMP
[1]
  flagellin induced TNFα expression: no inhibitory effect
DSS mediated colitis
  DSS mediated colitis: ameliorates DSS mediated colitis
[2]; mCRAMP 10 μM, 6 and 16 hours
  LPS induced TNF mRNA expression: did not alter
[2]; mCRAMP 10 μM, LPS 0.1 μg/ml, 16 hours
  LPS induced TNFα protein expression in conditioned media: significantly reduced
[2]; mCRAMP 1-10 μM, E. coli DNA 0.5 μg/ml, 16 hours
  E. coli DNA induced TNFα expression: no inhibitory effect
[3]; Camp−/− mice
  colonic collagen deposition: reduced
[3]; Camp−/− mice, p=0.0054
  TNBS induced colonic TNFα protein expression: significantly reduced TNBS induced TNFα protein expression
[3]; Camp−/− mice, p=0.04
  colonic colla2 mRNA: reduced
  histology score (H&E): significantly reduced histology score
[3]; TNBS treated Camp−/− mice
  percent of body weight change (week 0 to week 7): significant body weight loss regardless of mCRAMP treatment
[3]; TNBS treated wild-type mice
  collagen deposited in mucosal and submucosal layer (Masson Trichrome staining): reduced
[3]; TNBS treated wild-type mice, p=0.01
  percent of body weight change (week 0 to week 7): restored the body weight gain
[3]; WT and Camp−/− mice
  colonic vimentin mRNA expression: did not affect
  colonic α-SMA mRNA expression: did not affect
[3]; WT mice
  colonic collagen deposition: reduced
[3]; WT mice, p=0.0127
  TNBS induced colonic TNFα protein expression: significantly reduced TNBS induced TNFα protein expression
[3]; WT mice, p=0.0364
  colonic colla2 mRNA: reduced
[3]; chronic TNBS colitis
  fibroblast accumulation (number of fibroblasts per field, vimentin immunohistochemistry): not affected
[3]; mCRAMP 5 mg/kg intracolonically
  TNBS induced intestinal fibrosis: significantly reduces TNBS induced intestinal fibrosis
[3]; wild-type mice, p=0.03
  histology score (H&E): significantly reduced histology score
TNBS acute colitis; Camp−/− mice
  colonic TNFα levels: significantly reduced colonic TNFα levels
  colonic 16S expression: significantly reduced colonic 16S expression
TNBS acute colitis; Camp−/− mice, p=0.0484
  histological damage (histological score): significantly reduced histological damage
TNBS acute colitis; wild-type mice
  colonic TNFα levels: significantly reduced colonic TNFα levels
  colonic 16S expression: significantly reduced colonic 16S expression
TNBS acute colitis; wild-type mice, p=0.0006
  histological damage (histological score): significantly reduced histological damage
[4]
  LPS induced Akt phosphorylation: significantly suppressed
  LPS induced ERK phosphorylation: significantly suppressed
